Source: patent US11285156B2, “Substituted piperazines as KRAS G12C inhibitors” (Amgen Inc., priority 2018, dated 2022)
Read-outs that look alike come from different tables or passages of the source.

How the values were obtained:
[1] = target: GDP-bound KRAS protein (aa 1-169), containing both G12C and C118A amino acid substitutions (Homo sapiens (Human), UniProt P01116, C118A/G12C); test: Coupled nucleotide exchange assay (SOS-mediated nucleotide exchange, AlphaScreen); type: biochemical; details: 5 min compound pre-incubation; for IC50: read-out: Coupled exchange IC50 (5 min; μM)
GDP-bound KRAS protein (aa 1-169), containing both G12C and C118A amino acid substitutions, sequence (P01116 other isoform, or with tags, fused parts or gaps G12C/C118A): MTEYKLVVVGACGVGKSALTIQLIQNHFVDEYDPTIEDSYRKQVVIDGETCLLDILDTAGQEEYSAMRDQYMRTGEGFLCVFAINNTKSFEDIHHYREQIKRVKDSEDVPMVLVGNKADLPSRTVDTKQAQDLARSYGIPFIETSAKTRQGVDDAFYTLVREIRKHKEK

[2] = system: Phosphorylation of ERK1/2 in A549 cells; test: Phospho-ERK1/2 MSD assay in A549 cells; type: cell-based; details: read-out: p-ERK IC50 (2 h, A549; μM), 2 h compound treatment, A549 cells, EGF stimulated
In short: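 Readout: MSD phospho-ERK1/2 signal after compound (2 or 4 h) and 10 min EGF stimulation at 10 ng/mL.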

[3] = system: Phosphorylation of ERK1/2 in MIA PaCa-2 cells; test: Phospho-ERK1/2 MSD assay in MIA PaCa-2 cells; type: cell-based; details: read-out: p-ERK IC50 (2 h, MiaPaCa-2; μM), 2 h compound treatment, MIA PaCa-2 cells, EGF stimulated
In short: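 Phospho-ERK1/2 measured by MSD electrochemiluminescence kit in RIPA lysates of MIA PaCa-2 cells. Cells were treated with compound titrations for 2 or 4 h at 37 °C, 5% CO2, followed by a 10 min pulse of 10 ng/mL EGF.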

With `C=CC(=O)N1C[C@H](C)N(c2nc(=O)n(-c3c(C(C)C)cccc3[S+](C)[O-])c3nc(-c4ccccc4F)c(Cl)cc23)C[C@H]1C` (single isomer, unassigned) [Example 209-1] the “Coupled exchange IC50 (5 min; μM)” value [1] was 0.088 µM, the IC50 ([2]; Homo sapiens, A549, 2 h) was over 7.5 µM and the IC50 ([3]; Homo sapiens, MIA PaCa-2, 2 h) was 0.116 µM.

For `C=CC(=O)N1C[C@H](C)N(c2nc(=O)n(-c3c(C)cc([S+](C)[O-])cc3C(C)C)c3nc(-c4ccccc4C)c(Cl)cc23)C[C@H]1C` (single isomer, unassigned) [Example 213-2], the “Coupled exchange IC50 (5 min; μM)” value [1] was 0.072 µM, the IC50 ([2]; Homo sapiens, A549, 2 h) was over 7.5 µM and the IC50 ([3]; Homo sapiens, MIA PaCa-2, 2 h) was 0.069 µM.

For `C=CC(=O)N1C[C@H](C)N(c2nc(=O)n(-c3c(C)cc([S+](C)[O-])cc3C(C)C)c3nc(-c4ccccc4C)c(Cl)cc23)C[C@H]1C` (single isomer, unassigned) [Example 213-3], the “Coupled exchange IC50 (5 min; μM)” value [1] was 0.066 µM, the IC50 [2] was over 7.5 µM and the IC50 [3] was 0.074 µM.

With `C=CC(=O)N1C[C@H](C)N(c2nc(=O)n(-c3c(C)cc(S(C)(=O)=O)cc3C(C)C)c3nc(-c4ccccc4F)c(Cl)cc23)C[C@H]1C` (single isomer, unassigned) [Example 215-2] the “Coupled exchange IC50 (5 min; μM)” value [1] was 0.055 µM, the IC50 ([2]; Homo sapiens, A549, 2 h) was over 7.5 µM and the IC50 ([3]; Homo sapiens, MIA PaCa-2, 2 h) was 0.086 µM.

For `C=CC(=O)N1C[C@H](C)N(c2nc(=O)n(-c3c(C)ccnc3C(C)C)c3nc(C4CC4(C)C)c(Cl)cc23)C[C@H]1C` (stereo partly drawn) [93-2], the IC50 [1] was 0.305 µM, the IC50 [2] was over 7.5 µM and the IC50 [3] was 0.558 µM.

`C=CC(=O)N1C[C@H](C)N(c2nc(=O)n(-c3c(N(C)C)ccnc3C(C)C)c3nc(-c4ccccc4F)c(Cl)cc23)C[C@H]1C` [Example 55-51, 6-Chloro-1-[4-(dimethylamino)-2-isopropyl-3-pyridyl]-4-[(2S,5R)-2,5-dimethyl-4-prop-2-enoyl-piperazin-1-yl]-7-(2-fluorophenyl)pyrido[2,3-d]pyrimidin-2-one] gave an IC50 [1] of 0.19 µM, an IC50 ([2]; Homo sapiens, A549, 2 h) of over 7.5 µM and an IC50 [3] of 0.079 µM.

With `C=CC(=O)N1C[C@H](C)N(c2nc(=O)n(-c3c(Cl)ccnc3C(C)C)c3nc(OC)c(-c4ccccc4F)cc23)C[C@H]1C` [Example 55-52, 1-(4-Chloro-2-isopropyl-3-pyridyl)-4-[(2S,5R)-2,5-dimethyl-4-prop-2-enoyl-piperazin-1-yl]-6-(2-fluorophenyl)-7-methoxy-pyrido[2,3-d]pyrimidin-2-one] the IC50 [1] was 10.2 µM, the IC50 ([2]; Homo sapiens, A549, 2 h) was over 7.5 µM and the IC50 ([3]; Homo sapiens, MIA PaCa-2, 2 h) was 10 µM.

`C=CC(=O)N1C[C@H](C)N(c2nc(=O)n(C)c3nc(-c4ccccc4F)c(Cl)cc23)C[C@H]1C` [Example 55-59, 6-Chloro-4-[(2S,5R)-2,5-dimethyl-4-prop-2-enoyl-piperazin-1-yl]-7-(2-fluorophenyl)-1-methyl-pyrido[2,3-d]pyrimidin-2-one] was tested, and the IC50 [1] was 174 µM, the IC50 ([2]; Homo sapiens, A549, 2 h) was over 7.5 µM and the IC50 ([3]; Homo sapiens, MIA PaCa-2, 2 h) was 10 µM.

Compound `C=CC(=O)N1C[C@H](C)N(c2nc(=O)n(C(C)C)c3nc(-c4ccccc4F)c(Cl)cc23)C[C@H]1C` [Example 55-60, 6-Chloro-4-[(2S,5R)-2,5-dimethyl-4-prop-2-enoyl-piperazin-1-yl]-7-(2-fluorophenyl)-1-isopropyl-pyrido[2,3-d]pyrimidin-2-one] has an IC50 [1] of 7.85 µM, an IC50 ([2]; Homo sapiens, A549, 2 h) of over 7.5 µM and an IC50 ([3]; Homo sapiens, MIA PaCa-2, 2 h) of 7.77 µM.

For `C=CC(=O)N1C[C@H](C)N(c2nc(=O)n(-c3c(CN4CCCC4)cccc3C(C)C)c3nc(-c4ccccc4F)c(Cl)cc23)C[C@H]1C` [Example 80-10, 6-Chloro-4-[(2S,5R)-2,5-dimethyl-4-prop-2-enoyl-piperazin-1-yl]-7-(2-fluorophenyl)-1-[2-isopropyl-6-(pyrrolidin-1-ylmethyl)phenyl]pyrido[2,3-d]pyrimidin-2-one], the IC50 [1] was 0.077 µM, the IC50 ([2]; Homo sapiens, A549, 2 h) was over 7.5 µM and the IC50 ([3]; Homo sapiens, MIA PaCa-2, 2 h) was 0.063 µM.

Work on `C=CC(=O)N1C[C@H](C)N(c2nc(=O)n(-c3c(CN4CC(F)(F)C4)cccc3C(C)C)c3nc(-c4ccccc4F)c(Cl)cc23)C[C@H]1C` [Example 80-11, 6-chloro-1-[2-[(3,3-difluoroazetidin-1-yl)methyl]-6-isopropyl-phenyl]-4-[(2S,5R)-2,5-dimethyl-4-prop-2-enoyl-piperazin-1-yl]-7-(2-fluorophenyl)pyrido[2,3-d]pyrimidin-2-one] yielded an IC50 [1] of 0.078 µM, an IC50 ([2]; Homo sapiens, A549, 2 h) of over 7.5 µM and an IC50 ([3]; Homo sapiens, MIA PaCa-2, 2 h) of 0.222 µM.
